Read-outs that look alike come from different tables or passages of the source.
Tests used:
[1] = Tissue distribution in SD rat; format: in vivo; conditions: for concentration at 2 h / concentration at 8 h: male, 10 mg/kg oral gavage once
Description: [Worded in the source for another organism; this organism is reported under the same test.] Half of mice for each group (n = 3) were sacrificed 2H and 8H after drug administration, respectively. Blood, heart, and liver were collected at each time point. Blood was processed and detected as mentioned previously. The heart and liver were homogenized and added extractant. The protein of tissue samples was precipitated by vortex oscillation, and the supernatant was collected and determined by LC-MS/MS procedures.

WD + CCL4 mouse model = assay: WD + CCL4 mouse model, biochemical, liver weight ratio and liver pathology; format: in vivo, C57/B6 mouse
Procedure: C57/B6 mouse study: 61 C57/B6 mice ♂ aged 6–7 weeks were purchased from Beijing Vital River Laboratory Animal Technology Co., Ltd. Six animals were kept with a chow diet as normal control, and the other 55 animals were fed 60% fat diet (Western diet, D12492, Research diet) as the model group. […] Animals in the normal and model groups were given solvent by oral gavage. All drugs, including solvent, were administered consecutively for 4 weeks and once a day. After sacrifice, blood was collected and serum was isolated for the AST, ALT, TG, TC, LDL-c, HDL-c, and CK tests, and the livers were weighed to calculate the liver weight ratio. The left lobe of the liver of each mouse was collected for hematoxylin-eosin staining (H and E staining) and sirius red staining.
(§1) The liver samples were fixed in 10% formalin and embedded in paraffin using standard methods. The 4 μm paraffin sections were then assessed for liver histology by H and E staining and liver fibrosis by sirius red staining. The stained sections were panoramic scanned with a NanoZoomer Digital Pathology scanner (S210, Hamamatsu, Japan), and then observed with different visual fields at different magnifications, and scored for different liver lobes in the sections. The total NAS score represents the sum of the scores for steatosis (0–3), lobular inflammation (0–3), and ballooning (0–2), and ranges from 0–8 [30]. VIS7.0 software was used to analyze the area of liver fibrosis in the panoramic scanning SR staining sections, and the percentage of liver fibrosis area in the whole section area was calculated.

[2] = Observation of diarrhea in treated animals; format: in vivo, rodents; conditions: animal studies
HFD SD rat model = assay: HFD SD rat model, biochemical, organ weight ratio, liver lipid and liver pathology; format: in vivo
Procedure: SD rat study: 58 SD rats ♂ aged 5–6 weeks were purchased from Beijing Huafukang Biotechnology Co., Ltd. 9 animals were kept with a food control diet as normal control, and the other 49 animals were fed 40% fat, 1.25% cholesterol and 0.5% sodium cholate (HFD, D12109C, SYSE BIO, Changzhou, China) as a model group. […] Animals in the normal and model groups were given solvent by oral gavage. All drugs, including solvent, were administered consecutively for 4 weeks and once a day. After sacrifice, blood was collected and serum was isolated for the AST, ALT, TG, TC, LDL-c, and HDL-c test, and livers and hearts were weighed to calculate the liver weight ratio and the heart weight ratio, respectively. The right lobe of the liver of each rat was harvested for the TG and TC test (A110-1-1 and A111-1-1, Nanjing Jiancheng Institute of Bioengineering, Nanjing, China) according to the manufacturer's instructions. The left lobe of the liver was collected for hematoxylin-eosin staining (H and E staining) to quantify liver steatosis, inflammation, and ballooning.
as §1

HFD-CHOL hamster model = assay: HFD-CHOL hamster model, serum biochemical test; format: in vivo, golden hamster; conditions: 10 mg/kg (CS27109-M, MGL-3196) oral once a day 4 weeks, mean ± SD
Procedure: Hamster study: 58 golden hamsters ♂ aged 6–8 weeks were purchased from Beijing Vital River Laboratory Animal Technology Co., Ltd. 10 animals were kept with a diet of food control as normal control, and the other 48 animals were fed 40% fat and 1.25% cholesterol (HFD-CHOL, D12108C, Research diet) as a model group. […] Animals in the normal and model group were given solvent by oral gavage. All drugs, including solvent, were administered consecutively for 4 weeks and once a day. After sacrifice, blood was collected and serum was isolated for the AST, ALT, TG, TC, LDL-c, and HDL-c test.

[3] = heart, read-out: Heart concentration
[4] = liver, read-out: Liver concentration
[5] = serum, read-out: Serum concentration
[6] = WD + CCL4 mouse, 4 weeks, MGL3196 10 mg/kg, CS27109 high-dose (30 mg/kg), vs model

CC(C)c1cc(Oc2c(Cl)cc(-n3nc(C#N)c(=O)[nH]c3=O)cc2Cl)n[nH]c1=O [MGL3196, 2-[3,5-dichloro-4-(5-isopropyl-6-oxo-1,6-dihydropyridazin-3-yloxy)phenyl]-3,5-dio xo-2,3,4,5-tetrahydro[1,2,4]triazine-6-carbonitrile, reference compound]
average of concentration liver/heart ([1]; 10 mg/kg oral, average of 2H and 8H): 22.325
concentration at 2 h [1, 3]: 156 ng/g
concentration at 8 h [1, 3]: 128 ng/g
concentration at 2 h [1, 4]: 3850 ng/g
concentration at 8 h [1, 4]: 2550 ng/g
concentration at 2 h [1, 5]: 1.4 µg/mL
concentration at 8 h [1, 5]: 0.506 µg/mL
LDL-c (WD + CCL4 mouse model; WD + CCL4 mouse serum, 10 mg/kg (CS27109-M, MGL-3196) oral once a day 4 weeks, mean ± SD, model 1.1 ± 0.35, normal 0.43 ± 0.04): 0.33 ± 0.05 mmol/L
TG (WD + CCL4 mouse model; WD + CCL4 mouse serum, 10 mg/kg (CS27109-M, MGL-3196) oral once a day 4 weeks, mean ± SD, model 1.2 ± 0.34, normal 0.91 ± 0.14): 1.0 ± 0.23 mmol/L
HDL-c (WD + CCL4 mouse model; WD + CCL4 mouse serum, 10 mg/kg (CS27109-M, MGL-3196) oral once a day 4 weeks, mean ± SD, model 1.5 ± 0.25, normal 2.0 ± 0.08): 1.2 ± 0.13 mmol/L
TC (WD + CCL4 mouse model; WD + CCL4 mouse serum, 10 mg/kg (CS27109-M, MGL-3196) oral once a day 4 weeks, mean ± SD, model 4.1 ± 0.97, normal 3.0 ± 0.10): 1.9 ± 0.17 mmol/L
CK activity (WD + CCL4 mouse model; WD + CCL4 mouse serum, 10 mg/kg (CS27109-M, MGL-3196) oral once a day 4 weeks, mean ± SD, model 345 ± 268, normal 334 ± 193): 197 ± 129 U/L
AST (WD + CCL4 mouse model; WD + CCL4 mouse serum, 10 mg/kg (CS27109-M, MGL-3196) oral once a day 4 weeks, mean ± SD, model 10245 ± 4955, normal 116 ± 71): 2178 ± 769 U/L
ALT (WD + CCL4 mouse model; WD + CCL4 mouse serum, 10 mg/kg (CS27109-M, MGL-3196) oral once a day 4 weeks, mean ± SD, model 14003 ± 4205, normal 54 ± 15): 4658 ± 1639 U/L
liver inflammation score (H and E) (WD + CCL4 mouse model; [6]): notable reduction
liver steatosis score (H and E) (WD + CCL4 mouse model; [6]): notable reduction
area of liver fibrosis (sirius red) (WD + CCL4 mouse model; WD + CCL4 mouse, 4 weeks, three doses of CS27109 (3, 10, 30 mg/kg), MGL3196 10 mg/kg, vs model): prominently reduced the area of the fibrosis
diarrhea in treated animals [2]: exhibit diarrhea
Liver TC (HFD SD rat model; HFD SD rat liver, 15 mg/kg (CS27109-M, MGL-3196) oral once a day 4 weeks, mean ± SD, model 13 ± 2.2, normal 6.0 ± 0.76): 12 ± 1.7 µmol/g
Liver TG (HFD SD rat model; HFD SD rat liver, 15 mg/kg (CS27109-M, MGL-3196) oral once a day 4 weeks, mean ± SD, model 102 ± 36, normal 0.75 ± 12): 113 ± 38 µmol/g
TG (HFD SD rat model; HFD SD rat serum, 15 mg/kg (CS27109-M, MGL-3196) oral once a day 4 weeks, mean ± SD, model 0.82 ± 0.73, normal 0.53 ± 0.34): 0.11 ± 0.03^∗∗∗ mmol/L
HDL-c (HFD SD rat model; HFD SD rat serum, 15 mg/kg (CS27109-M, MGL-3196) oral once a day 4 weeks, mean ± SD, model 1.2 ± 0.44, normal 1.1 ± 0.13): 0.94 ± 0.26 mmol/L
LDL-c (HFD SD rat model; HFD SD rat serum, 15 mg/kg (CS27109-M, MGL-3196) oral once a day 4 weeks, mean ± SD, model 9.7 ± 6.1, normal 0.28 ± 0.06): 1.1 ± 0.65 mmol/L
TC (HFD SD rat model; HFD SD rat serum, 15 mg/kg (CS27109-M, MGL-3196) oral once a day 4 weeks, mean ± SD, model 20 ± 13, normal 1.5 ± 0.20): 3.3 ± 1.3 mmol/L
ALT (HFD SD rat model; HFD SD rat serum, 15 mg/kg (CS27109-M, MGL-3196) oral once a day 4 weeks, mean ± SD, model 166 ± 95, normal 32 ± 6.8): 74 ± 24 U/L
AST (HFD SD rat model; HFD SD rat serum, 15 mg/kg (CS27109-M, MGL-3196) oral once a day 4 weeks, mean ± SD, model 365 ± 212, normal 103 ± 21): 185 ± 66 U/L
NAS score (HFD SD rat model; HFD SD rat, 4 weeks, 15 mg/kg, vs model): tendency to reduce the NAS score, but without significance
liver steatosis score (H and E) (HFD SD rat model; HFD SD rat, 4 weeks, CS27109 5-45 mg/kg dose-dependent, MGL3196 15 mg/kg, vs model): lessened steatosis
HDL-c (HFD-CHOL hamster model; model 3.6 ± 1.1, normal 1.6 ± 0.45): 2.9 ± 0.36 mmol/L
LDL-c (HFD-CHOL hamster model; model 17 ± 6.1, normal 1.3 ± 0.54): 8.6 ± 3.3 mmol/L
TG (HFD-CHOL hamster model; model 26 ± 24, normal 2.1 ± 1.1): 5.9 ± 5.6 mmol/L
TC (HFD-CHOL hamster model; model 37 ± 13, normal 3.1 ± 0.72): 18 ± 6.3 mmol/L
ALT (HFD-CHOL hamster model; model 278 ± 174, normal 94 ± 58): 206 ± 47 U/L
AST (HFD-CHOL hamster model; model 638 ± 323, normal 98 ± 45): 752 ± 261 U/L

Source: article PMC9943626, “CS27109, A Selective Thyroid Hormone Receptor-β Agonist Alleviates Metabolic-Associated Fatty Liver Disease in Murine Models” (International Journal of Endocrinology, 2023)
